Experimental data from ChEMBL document CHEMBL4507284, “Data for DCP probe BI-1230” (2021).

How the values were obtained:
[1] = target: Tyrosine-protein kinase ABL1 (Homo sapiens) (UniProt P00519); settings: Compound concentration 1000.0 nM
[2] = test system: ALK tyrosine kinase receptor (Homo sapiens), Q9UM73 [L1196M]; settings: Compound concentration 1000.0 nM
[3] = target: 5'-AMP-activated protein kinase catalytic subunit alpha-1 (Homo sapiens) (UniProt Q13131); settings: Compound concentration 1000.0 nM
[4] = target: Cytoplasmic tyrosine-protein kinase BMX (Homo sapiens) (UniProt P51813); settings: Compound concentration 1000.0 nM
[5] = target: Ephrin type-A receptor 2 (Homo sapiens) (UniProt P29317); settings: Compound concentration 1000.0 nM
[6] = target: Ephrin type-B receptor 1 (Homo sapiens) (UniProt P54762); settings: Compound concentration 1000.0 nM
[7] = target: Ephrin type-B receptor 2 (Homo sapiens) (UniProt P29323); settings: Compound concentration 1000.0 nM
[8] = target: Mitogen-activated protein kinase 6 (Homo sapiens) (UniProt Q16659); settings: Compound concentration 1000.0 nM
[9] = test system: Receptor-type tyrosine-protein kinase FLT3 (Homo sapiens), P36888 [D835V]; settings: Compound concentration 1000.0 nM
[10] = test system: Receptor-type tyrosine-protein kinase FLT3 (Homo sapiens), P36888 [N841I]; settings: Compound concentration 1000.0 nM
[11] = target: Tyrosine-protein kinase FRK (Homo sapiens) (UniProt P42685); settings: Compound concentration 1000.0 nM
[12] = target: Cyclin-G-associated kinase (Homo sapiens) (UniProt O14976); settings: Compound concentration 1000.0 nM
[13] = target: Beta-adrenergic receptor kinase 1 (Homo sapiens) (UniProt P25098); settings: Compound concentration 1000.0 nM
[14] = target: G protein-coupled receptor kinase 3 (Homo sapiens) (UniProt P35626); settings: Compound concentration 1000.0 nM
[15] = target: Homeodomain-interacting protein kinase 3 (Homo sapiens) (UniProt Q9H422); settings: Compound concentration 1000.0 nM
[16] = target: Mitogen-activated protein kinase kinase kinase kinase 1 (Homo sapiens) (UniProt Q92918); settings: Compound concentration 1000.0 nM
[17] = target: Inhibitor of nuclear factor kappa-B kinase subunit alpha (Homo sapiens) (UniProt O15111); settings: Compound concentration 1000.0 nM
[18] = target: Interleukin-1 receptor-associated kinase 1 (Homo sapiens) (UniProt P51617); settings: Compound concentration 1000.0 nM
[19] = target: Tyrosine-protein kinase JAK2 (Homo sapiens) (UniProt O60674); settings: Compound concentration 1000.0 nM
[20] = target: Mitogen-activated protein kinase 8 (Homo sapiens) (UniProt P45983); settings: Compound concentration 1000.0 nM
[21] = target: Mitogen-activated protein kinase kinase kinase 4 (Homo sapiens) (UniProt Q9Y6R4); settings: Compound concentration 1000.0 nM
[22] = target: MAP/microtubule affinity-regulating kinase 4 (Homo sapiens) (UniProt Q96L34); settings: Compound concentration 1000.0 nM
[23] = target: Microtubule-associated serine/threonine-protein kinase 1 (Homo sapiens) (UniProt Q9Y2H9); settings: Compound concentration 1000.0 nM
[24] = target: Dual specificity mitogen-activated protein kinase kinase 2 (Homo sapiens) (UniProt P36507); settings: Compound concentration 1000.0 nM
[25] = target: Serine/threonine-protein kinase 26 (Homo sapiens) (UniProt Q9P289); settings: Compound concentration 1000.0 nM
[26] = target: Serine/threonine-protein kinase mTOR (Homo sapiens) (UniProt P42345); settings: Compound concentration 1000.0 nM
[27] = target: Serine/threonine-protein kinase Nek9 (Homo sapiens) (UniProt Q8TD19); settings: Compound concentration 1000.0 nM
[28] = target: Serine/threonine-protein kinase NIM1 (Homo sapiens) (UniProt Q8IY84); settings: Compound concentration 1000.0 nM
[29] = target: Serine/threonine-protein kinase PAK 2 (Homo sapiens) (UniProt Q13177); settings: Compound concentration 1000.0 nM
[30] = target: Serine/threonine-protein kinase PAK 5 (Homo sapiens) (UniProt Q9P286); settings: Compound concentration 1000.0 nM
[31] = target: Phosphorylase b kinase regulatory subunit alpha, liver isoform (Homo sapiens) (UniProt P46019); settings: Compound concentration 1000.0 nM
[32] = target: Serine/threonine-protein kinase N1 (Homo sapiens) (UniProt Q16512); settings: Compound concentration 1000.0 nM
[33] = target: Rho-associated protein kinase 1 (Homo sapiens) (UniProt Q13464); settings: Compound concentration 1000.0 nM
[34] = target: Rho-associated protein kinase 2 (Homo sapiens) (UniProt O75116); settings: Compound concentration 1000.0 nM
[35] = target: Ribosomal protein S6 kinase alpha-4 (Homo sapiens) (UniProt O75676); settings: Compound concentration 1000.0 nM
[36] = target: Ribosomal protein S6 kinase alpha-2 (Homo sapiens) (UniProt Q15349); settings: Compound concentration 1000.0 nM
[37] = target: Tyrosine-protein kinase Srms (Homo sapiens) (UniProt Q9H3Y6); settings: Compound concentration 1000.0 nM
[38] = target: Tyrosine-protein kinase SYK (Homo sapiens) (UniProt P43405); settings: Compound concentration 1000.0 nM
[39] = target: Serine/threonine-protein kinase TAO1 (Homo sapiens) (UniProt Q7L7X3); settings: Compound concentration 1000.0 nM
[40] = target: Serine/threonine-protein kinase tousled-like 1 (Homo sapiens) (UniProt Q9UKI8); settings: Compound concentration 1000.0 nM
[41] = target: Transient receptor potential cation channel subfamily M member 6 (Homo sapiens) (UniProt Q9BX84); settings: Compound concentration 1000.0 nM
[42] = target: Serine/threonine-protein kinase VRK2 (Homo sapiens) (UniProt Q86Y07); settings: Compound concentration 1000.0 nM
[43] = target: Wee1-like protein kinase (Homo sapiens) (UniProt P30291); settings: Compound concentration 1000.0 nM
[44] = target: D(1A) dopamine receptor (Homo sapiens) (UniProt P21728); settings: Compound concentration 10.0 uM
[45] = target: Histamine H2 receptor (Homo sapiens) (UniProt P25021); settings: Compound concentration 10.0 uM

Tyrosine-protein kinase Srms (Homo sapiens), sequence (Q9H3Y6 whole entry): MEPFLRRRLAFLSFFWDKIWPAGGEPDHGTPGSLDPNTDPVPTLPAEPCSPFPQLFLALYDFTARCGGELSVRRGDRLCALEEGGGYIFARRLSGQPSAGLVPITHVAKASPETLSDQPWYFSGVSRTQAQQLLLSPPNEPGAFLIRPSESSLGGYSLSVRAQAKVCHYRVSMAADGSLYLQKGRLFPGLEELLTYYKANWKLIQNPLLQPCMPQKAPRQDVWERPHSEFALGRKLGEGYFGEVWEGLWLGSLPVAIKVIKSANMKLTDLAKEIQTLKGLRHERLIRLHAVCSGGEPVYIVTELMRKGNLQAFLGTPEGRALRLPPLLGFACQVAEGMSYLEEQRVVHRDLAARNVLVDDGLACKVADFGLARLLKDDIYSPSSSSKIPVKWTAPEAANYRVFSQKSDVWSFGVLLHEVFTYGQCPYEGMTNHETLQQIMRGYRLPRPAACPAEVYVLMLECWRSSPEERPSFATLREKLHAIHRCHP
Serine/threonine-protein kinase N1 (Homo sapiens), sequence (Q16512 2-942 limits assumed): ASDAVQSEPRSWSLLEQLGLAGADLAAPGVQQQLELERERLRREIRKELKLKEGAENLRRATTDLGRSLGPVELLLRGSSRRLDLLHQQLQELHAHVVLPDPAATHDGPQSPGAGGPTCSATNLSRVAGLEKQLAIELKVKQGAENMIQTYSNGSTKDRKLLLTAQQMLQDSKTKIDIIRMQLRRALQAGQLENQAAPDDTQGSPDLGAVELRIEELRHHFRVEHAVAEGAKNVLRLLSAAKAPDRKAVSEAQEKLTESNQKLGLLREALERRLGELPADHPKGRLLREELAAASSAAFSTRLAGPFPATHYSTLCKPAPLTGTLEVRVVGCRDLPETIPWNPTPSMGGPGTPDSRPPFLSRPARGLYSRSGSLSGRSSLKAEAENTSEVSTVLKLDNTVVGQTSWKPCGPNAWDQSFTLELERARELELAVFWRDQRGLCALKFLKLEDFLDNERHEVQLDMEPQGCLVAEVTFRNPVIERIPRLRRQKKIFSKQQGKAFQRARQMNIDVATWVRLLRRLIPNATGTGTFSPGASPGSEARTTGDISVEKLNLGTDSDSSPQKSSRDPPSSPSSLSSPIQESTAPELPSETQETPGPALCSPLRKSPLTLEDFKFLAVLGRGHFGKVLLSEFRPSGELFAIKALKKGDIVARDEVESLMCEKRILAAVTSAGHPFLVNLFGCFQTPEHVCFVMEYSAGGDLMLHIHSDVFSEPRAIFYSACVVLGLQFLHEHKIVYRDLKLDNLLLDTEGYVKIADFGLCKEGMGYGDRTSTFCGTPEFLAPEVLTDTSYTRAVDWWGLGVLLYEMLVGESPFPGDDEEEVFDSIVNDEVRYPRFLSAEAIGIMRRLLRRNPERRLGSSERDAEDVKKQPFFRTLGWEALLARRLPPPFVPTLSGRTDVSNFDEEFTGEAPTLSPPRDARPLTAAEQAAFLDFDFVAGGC
Ephrin type-A receptor 2 (Homo sapiens), sequence (P29317 whole entry): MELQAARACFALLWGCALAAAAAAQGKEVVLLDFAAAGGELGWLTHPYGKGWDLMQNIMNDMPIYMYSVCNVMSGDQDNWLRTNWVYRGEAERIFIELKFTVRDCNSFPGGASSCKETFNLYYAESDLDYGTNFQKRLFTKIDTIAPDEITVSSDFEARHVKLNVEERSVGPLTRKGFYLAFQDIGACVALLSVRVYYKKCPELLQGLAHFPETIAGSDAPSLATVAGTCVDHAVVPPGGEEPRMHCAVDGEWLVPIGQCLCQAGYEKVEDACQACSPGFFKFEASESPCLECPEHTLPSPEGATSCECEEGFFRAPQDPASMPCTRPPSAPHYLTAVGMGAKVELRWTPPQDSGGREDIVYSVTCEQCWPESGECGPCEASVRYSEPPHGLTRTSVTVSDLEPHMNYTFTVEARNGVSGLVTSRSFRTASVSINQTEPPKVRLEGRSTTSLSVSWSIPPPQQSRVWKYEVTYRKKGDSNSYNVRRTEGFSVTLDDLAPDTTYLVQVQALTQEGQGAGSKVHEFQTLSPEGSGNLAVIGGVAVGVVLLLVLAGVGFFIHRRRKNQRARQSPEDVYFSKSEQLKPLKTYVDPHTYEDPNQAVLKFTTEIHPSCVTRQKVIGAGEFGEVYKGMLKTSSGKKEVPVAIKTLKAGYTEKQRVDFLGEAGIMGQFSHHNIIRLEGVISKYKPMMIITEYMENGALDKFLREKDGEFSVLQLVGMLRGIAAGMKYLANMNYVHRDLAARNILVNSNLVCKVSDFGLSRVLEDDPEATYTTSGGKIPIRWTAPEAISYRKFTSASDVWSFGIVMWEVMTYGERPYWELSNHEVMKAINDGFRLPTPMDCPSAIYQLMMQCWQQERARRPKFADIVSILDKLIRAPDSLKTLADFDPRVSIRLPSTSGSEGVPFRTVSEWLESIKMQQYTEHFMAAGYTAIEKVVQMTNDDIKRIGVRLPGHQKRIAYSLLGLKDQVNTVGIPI
Beta-adrenergic receptor kinase 1 (Homo sapiens), sequence (P25098 whole entry): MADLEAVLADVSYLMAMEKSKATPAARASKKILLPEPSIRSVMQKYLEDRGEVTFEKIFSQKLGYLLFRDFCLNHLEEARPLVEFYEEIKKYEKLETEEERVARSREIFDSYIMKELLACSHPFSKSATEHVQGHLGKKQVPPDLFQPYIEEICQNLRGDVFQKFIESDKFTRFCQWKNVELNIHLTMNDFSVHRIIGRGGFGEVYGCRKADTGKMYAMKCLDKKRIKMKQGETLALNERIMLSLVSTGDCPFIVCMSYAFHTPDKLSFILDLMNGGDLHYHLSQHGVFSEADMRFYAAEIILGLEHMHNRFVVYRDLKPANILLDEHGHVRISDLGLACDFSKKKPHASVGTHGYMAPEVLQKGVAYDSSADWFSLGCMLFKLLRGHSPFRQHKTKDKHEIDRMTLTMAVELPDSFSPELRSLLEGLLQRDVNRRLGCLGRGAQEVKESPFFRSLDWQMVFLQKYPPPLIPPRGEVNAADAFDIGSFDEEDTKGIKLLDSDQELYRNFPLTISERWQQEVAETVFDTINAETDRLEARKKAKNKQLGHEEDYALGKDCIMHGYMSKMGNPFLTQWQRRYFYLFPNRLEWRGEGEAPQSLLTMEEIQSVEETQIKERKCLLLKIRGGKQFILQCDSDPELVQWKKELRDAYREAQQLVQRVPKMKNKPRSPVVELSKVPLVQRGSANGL
Microtubule-associated serine/threonine-protein kinase 1 (Homo sapiens), sequence (Q9Y2H9 whole entry, looked up): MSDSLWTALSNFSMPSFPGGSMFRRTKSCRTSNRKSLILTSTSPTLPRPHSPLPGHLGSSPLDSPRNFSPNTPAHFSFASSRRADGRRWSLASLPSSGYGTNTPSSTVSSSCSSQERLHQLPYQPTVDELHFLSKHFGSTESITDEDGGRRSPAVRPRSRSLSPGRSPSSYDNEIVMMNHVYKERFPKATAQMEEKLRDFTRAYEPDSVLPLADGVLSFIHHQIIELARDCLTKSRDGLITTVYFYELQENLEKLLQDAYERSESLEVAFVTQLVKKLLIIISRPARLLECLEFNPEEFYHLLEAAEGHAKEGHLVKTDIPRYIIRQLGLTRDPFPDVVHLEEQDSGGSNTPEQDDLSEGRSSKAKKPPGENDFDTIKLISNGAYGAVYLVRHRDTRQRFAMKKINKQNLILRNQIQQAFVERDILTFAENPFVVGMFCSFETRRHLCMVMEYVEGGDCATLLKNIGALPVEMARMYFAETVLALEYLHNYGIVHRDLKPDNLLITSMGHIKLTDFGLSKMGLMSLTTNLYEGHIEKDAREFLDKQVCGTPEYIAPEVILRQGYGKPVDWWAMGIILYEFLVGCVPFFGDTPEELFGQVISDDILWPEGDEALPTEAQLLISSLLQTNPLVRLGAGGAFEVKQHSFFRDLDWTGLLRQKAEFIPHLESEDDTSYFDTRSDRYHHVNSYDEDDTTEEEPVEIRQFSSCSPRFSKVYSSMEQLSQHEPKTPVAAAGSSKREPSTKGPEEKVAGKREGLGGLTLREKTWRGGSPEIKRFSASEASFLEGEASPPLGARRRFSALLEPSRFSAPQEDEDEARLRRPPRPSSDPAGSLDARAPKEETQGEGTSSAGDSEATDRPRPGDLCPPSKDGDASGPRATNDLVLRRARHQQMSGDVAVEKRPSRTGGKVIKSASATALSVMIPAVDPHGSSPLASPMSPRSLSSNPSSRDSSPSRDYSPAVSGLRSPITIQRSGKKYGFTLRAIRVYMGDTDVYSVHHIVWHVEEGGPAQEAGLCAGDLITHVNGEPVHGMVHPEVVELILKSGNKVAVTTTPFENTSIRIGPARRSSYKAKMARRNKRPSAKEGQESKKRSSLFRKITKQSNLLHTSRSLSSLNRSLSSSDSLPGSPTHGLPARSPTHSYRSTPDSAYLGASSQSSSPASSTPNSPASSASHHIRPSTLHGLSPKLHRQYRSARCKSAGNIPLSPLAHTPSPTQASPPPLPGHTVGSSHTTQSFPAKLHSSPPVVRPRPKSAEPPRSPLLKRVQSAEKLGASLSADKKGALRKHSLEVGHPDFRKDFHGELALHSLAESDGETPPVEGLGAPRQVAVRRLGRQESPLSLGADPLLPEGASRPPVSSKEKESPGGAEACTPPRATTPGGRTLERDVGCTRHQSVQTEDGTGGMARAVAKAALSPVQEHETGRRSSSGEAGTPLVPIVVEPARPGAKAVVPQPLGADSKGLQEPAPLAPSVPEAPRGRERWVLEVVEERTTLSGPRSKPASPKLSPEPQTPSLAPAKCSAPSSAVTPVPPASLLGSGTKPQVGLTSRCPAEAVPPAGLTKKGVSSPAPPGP
Serine/threonine-protein kinase 26 (Homo sapiens), sequence (Q9P289 2-416 limits assumed): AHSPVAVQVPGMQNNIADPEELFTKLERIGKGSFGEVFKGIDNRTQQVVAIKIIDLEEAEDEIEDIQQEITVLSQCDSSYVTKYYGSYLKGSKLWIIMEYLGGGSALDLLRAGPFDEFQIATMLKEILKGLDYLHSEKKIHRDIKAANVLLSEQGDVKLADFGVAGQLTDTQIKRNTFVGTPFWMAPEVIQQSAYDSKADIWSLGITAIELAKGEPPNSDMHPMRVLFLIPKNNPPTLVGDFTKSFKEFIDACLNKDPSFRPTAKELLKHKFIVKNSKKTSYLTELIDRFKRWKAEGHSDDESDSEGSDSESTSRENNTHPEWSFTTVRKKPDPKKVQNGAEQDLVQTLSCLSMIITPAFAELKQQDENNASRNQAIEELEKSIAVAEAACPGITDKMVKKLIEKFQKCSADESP

COc1ccc2c(O[C@@H]3C[C@H]4C(=O)N[C@]5(C(=O)O)CC5/C=C\CCCCC[C@H](NC(=O)OC5CCCC5)C(=O)N4C3)cc(-c3csc(NC(=O)C(C)C)n3)nc2c1C (stereo not given in full) [BI 1230]
inactive: residual activity [1] 74% | residual activity [2] 97% | residual activity [3] 100% | residual activity [4] 57% | residual activity [5] 80% | residual activity [6] 100% | residual activity [7] 98% | residual activity [8] 93% | residual activity [9] 79% | residual activity [10] 89% | residual activity [11] 100% | residual activity [12] 95% | residual activity [13] 83% | residual activity [14] 99% | residual activity [15] 83% | residual activity [16] 100% | residual activity [17] 92% | residual activity [18] 69% | residual activity [19] 64% | residual activity [20] 81% | residual activity [21] 74% | residual activity [22] 99% | residual activity [23] 98% | residual activity [24] 77% | residual activity [25] 95% | residual activity [26] 100% | residual activity [27] 100% | residual activity [28] 83% | residual activity [29] 91% | residual activity [30] 100% | residual activity [31] 100% | residual activity [32] 100% | residual activity [33] 98% | residual activity [34] 95% | residual activity [35] 72% | residual activity [36] 100% | residual activity [37] 98% | residual activity [38] 100% | residual activity [39] 96% | residual activity [40] 100% | residual activity [41] 100% | residual activity [42] 79% | residual activity [43] 100% | inhibition [44] 46.3% | inhibition [45] 39.4%

O=C(N[C@H]1CCCCC/C=C\C2C[C@@]2(C(=O)O)NC(=O)[C@@H]2C[C@@H](Oc3ccncc3)CN2C1=O)OC1CCCC1 (stereo not given in full) [BI 1675]
inactive: residual activity [1] 85% | residual activity [2] 100% | residual activity [3] 100% | residual activity [4] 66% | residual activity [5] 71% | residual activity [6] 100% | residual activity [7] 91% | residual activity [8] 92% | residual activity [9] 92% | residual activity [10] 100% | residual activity [11] 100% | residual activity [12] 90% | residual activity [13] 51% | residual activity [14] 100% | residual activity [15] 100% | residual activity [16] 93% | residual activity [17] 100% | residual activity [18] 88% | residual activity [19] 100% | residual activity [20] 86% | residual activity [21] 91% | residual activity [22] 100% | residual activity [23] 82% | residual activity [24] 87% | residual activity [25] 97% | residual activity [26] 100% | residual activity [27] 100% | residual activity [28] 82% | residual activity [29] 79% | residual activity [30] 83% | residual activity [31] 100% | residual activity [32] 100% | residual activity [33] 100% | residual activity [34] 100% | residual activity [35] 85% | residual activity [36] 75% | residual activity [37] 100% | residual activity [38] 100% | residual activity [39] 100% | residual activity [40] 82% | residual activity [41] 98% | residual activity [42] 100% | residual activity [43] 100% | inhibition [44] -4.18% | inhibition [45] 15.6%
